Measured values reported in PubChem BioAssay AID1918956 (Molecular Pharmacology Branch, DTP, NCI, 2023).
Where “and” joins values, the source holds several entries; their conditions need not be identical. Identical values can stand only once.

System: OVCAR-5 complex spheroids, viability
Assay: Anticancer human tumor OVCAR-5 cell line growth inhibition;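 note: spheroids exposed to agents for seven days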;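 for viability, T/C: 100% = DMSO vehicle control wells viability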
Conditions: for viability, T/C: stronger effect = lower value
Outline: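 Multicellular complex spheroids of tumor cells with human endothelial cells (HUVEC) and mesenchymal stem cells; the LSD1 inhibitor iadademstat was combined with standard-of-care or investigational agents. Top concentration at or near clinical Cmax, half-log dilutions; final DMSO ≤0.25%.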

[1] = curve of first compound, second compound 0.1 µM
[2] = curve of first compound, second compound 0.316 µM
[3] = curve of first compound, second compound 1 µM
[4] = curve of first compound, second compound 3.16 µM
[5] = curve of first compound, second compound 10 µM

COc1ccc([C@@H](O)c2cc(-c3ncnc4cc(N5CCOCC5)ccc34)c(F)cc2Cl)nn1 + NC1CC1c1ccc(-c2cccc(O)c2)cc1
IC50 [1]: 0.625 µM | IC50 [2]: 0.74 µM | IC50 [3]: 0.419 µM | IC50 [4]: 0.396 µM | IC50 [5]: 0.3 µM | viability, T/C (second compound 0.1 µM, first compound 0.0316 µM): 80.8% | viability, T/C (second compound 0.1 µM, first compound 0.1 µM): 72.6% | viability, T/C (second compound 0.1 µM, first compound 0.316 µM): 55.3% | viability, T/C (second compound 0.1 µM, first compound 1 µM): 46.4% | viability, T/C (second compound 0.1 µM, first compound 3.16 µM): 29.5% | viability, T/C (second compound 0.1 µM, first compound 10 µM): 16.4% | viability, T/C (second compound 0.316 µM, first compound 0.0316 µM): 92.3% | viability, T/C (second compound 0.316 µM, first compound 0.1 µM): 79.1% | viability, T/C (second compound 0.316 µM, first compound 0.316 µM): 61.4% | viability, T/C (second compound 0.316 µM, first compound 1 µM): 45.3% | viability, T/C (second compound 0.316 µM, first compound 3.16 µM): 31.8% | viability, T/C (second compound 0.316 µM, first compound 10 µM): 18.1% | viability, T/C (second compound 1 µM, first compound 0.0316 µM): 86.3% | viability, T/C (second compound 1 µM, first compound 0.1 µM): 73.4% | viability, T/C (second compound 1 µM, first compound 0.316 µM): 57.1% | viability, T/C (second compound 1 µM, first compound 1 µM): 31.7% | viability, T/C (second compound 1 µM, first compound 3.16 µM): 25.8% | viability, T/C (second compound 1 µM, first compound 10 µM): 16.7% | viability, T/C (second compound 3.16 µM, first compound 0.0316 µM): 84% | viability, T/C (second compound 3.16 µM, first compound 0.1 µM): 68% | viability, T/C (second compound 3.16 µM, first compound 0.316 µM): 49.9% | viability, T/C (second compound 3.16 µM, first compound 1 µM): 38.8% | viability, T/C (second compound 3.16 µM, first compound 3.16 µM): 31.6% | viability, T/C (second compound 3.16 µM, first compound 10 µM): 15.9% | viability, T/C (second compound 10 µM, first compound 0.0316 µM): 79.1% | viability, T/C (second compound 10 µM, first compound 0.1 µM): 65.3% | viability, T/C (second compound 10 µM, first compound 0.316 µM): 46.7% | viability, T/C (second compound 10 µM, first compound 1 µM): 36.6% | viability, T/C (second compound 10 µM, first compound 3.16 µM): 29.6% | viability, T/C (second compound 10 µM, first compound 10 µM): 16.6%

COc1ccc([C@@H](O)c2cc(-c3ncnc4cc(N5CCOCC5)ccc34)c(F)cc2Cl)nn1
viability, T/C (compound 0.0316 µM): 92.1% and 91.6% | viability, T/C (compound 0.1 µM): 91.6% and 84.7% | viability, T/C (compound 0.316 µM): 73.3% and 58.1% | viability, T/C (compound 1 µM): 55.4% and 44.1% | viability, T/C (compound 3.16 µM): 45.3% and 32.7% | viability, T/C (compound 10 µM): 24.9% and 18.4% | IC50 (curve of compound): 1.79 µM and 0.69 µM

COc1cc(Nc2ncc3c(n2)-c2ccc(Cl)cc2C(c2c(F)cccc2OC)=NC3)ccc1C(=O)O
viability, T/C (compound 0.00316 µM): 94.1% and 95.2% | viability, T/C (compound 0.01 µM): 88.5% and 86.9% | viability, T/C (compound 0.0316 µM): 74.8% and 74.2% | viability, T/C (compound 0.1 µM): 59.8% and 52.2% | viability, T/C (compound 0.316 µM): 57% and 49% | viability, T/C (compound 1 µM): 53.1% and 49.2% | IC50 (curve of compound): > 1 µM and 0.25 µM

CCc1c2c(nc3ccc(O)cc13)-c1cc3c(c(=O)n1C2)COC(=O)[C@]3(O)CC + NC1CC1c1ccc(-c2cccc(O)c2)cc1
IC50 [1]: < 0.000949 µM | IC50 [2]: < 0.000949 µM | IC50 [3]: < 0.000949 µM | IC50 [4]: < 0.000949 µM | IC50 [5]: < 0.000949 µM | viability, T/C (second compound 0.1 µM, first compound 0.000949 µM): 33% | viability, T/C (second compound 0.1 µM, first compound 0.003 µM): 17.4% | viability, T/C (second compound 0.1 µM, first compound 0.00949 µM): 7.17% | viability, T/C (second compound 0.1 µM, first compound 0.03 µM): 2.96% | viability, T/C (second compound 0.1 µM, first compound 0.0949 µM): 0.9% | viability, T/C (second compound 0.1 µM, first compound 0.3 µM): 0.46% | viability, T/C (second compound 0.316 µM, first compound 0.000949 µM): 31.7% | viability, T/C (second compound 0.316 µM, first compound 0.003 µM): 18.4% | viability, T/C (second compound 0.316 µM, first compound 0.00949 µM): 7.68% | viability, T/C (second compound 0.316 µM, first compound 0.03 µM): 2.91% | viability, T/C (second compound 0.316 µM, first compound 0.0949 µM): 0.78% | viability, T/C (second compound 0.316 µM, first compound 0.3 µM): 0.44% | viability, T/C (second compound 1 µM, first compound 0.000949 µM): 31.3% | viability, T/C (second compound 1 µM, first compound 0.003 µM): 18% | viability, T/C (second compound 1 µM, first compound 0.00949 µM): 7.01% | viability, T/C (second compound 1 µM, first compound 0.03 µM): 3.01% | viability, T/C (second compound 1 µM, first compound 0.0949 µM): 0.61% | viability, T/C (second compound 1 µM, first compound 0.3 µM): 0.46% | viability, T/C (second compound 3.16 µM, first compound 0.000949 µM): 32.2% | viability, T/C (second compound 3.16 µM, first compound 0.003 µM): 18.7% | viability, T/C (second compound 3.16 µM, first compound 0.00949 µM): 8.72% | viability, T/C (second compound 3.16 µM, first compound 0.03 µM): 4.14% | viability, T/C (second compound 3.16 µM, first compound 0.0949 µM): 0.87% | viability, T/C (second compound 3.16 µM, first compound 0.3 µM): 0.58% | viability, T/C (second compound 10 µM, first compound 0.000949 µM): 34% | viability, T/C (second compound 10 µM, first compound 0.003 µM): 19.9% | viability, T/C (second compound 10 µM, first compound 0.00949 µM): 8.18% | viability, T/C (second compound 10 µM, first compound 0.03 µM): 4.37% | viability, T/C (second compound 10 µM, first compound 0.0949 µM): 0.68% | viability, T/C (second compound 10 µM, first compound 0.3 µM): 0.41%
